Experimental findings from US7879844B2, “Heterocyclic janus kinase 3 inhibitors” (Astellas Pharma Inc., priority 2005, dated 2011) are described below.

In the assay the target is T1, human JAK3 kinase domain (Homo sapiens, UniProt P52333).
T1 construct: attached to the N-terminal of the 796-1124 (C-terminal) fragment of the human JAK3 protein; His-tag (N); purchased Carna Biosciences, Inc. (Kobe, Japan); host or cells: baculovirus expression system
Description: JAK3 inhibition test. The following applies: purified human JAK3 kinase domain; Biotin-Lyn-Substrate-2, 20 μM ATP in substrate solution; absorbance at 450 nm; read-out: IC50 (JAK3 inhibitory activity). The assay is classed as biochemical. As for the experimental part:
The JAK3 inhibition test was performed as described below according to the method of Okimoto et al.
Purified human JAK3 kinase domain was purchased from Carna Biosciences, Inc. (Kobe, Japan). This is obtained as described below. His-tag (41 kDa) was attached to the N-terminal of the 796-1124 (C-terminal) fragment of the human JAK3 protein (accession number #NM_000215), expressed using baculovirus expression system, and then purified using Ni-NTA affinity column chromatography.
After incubation at ambient temperature for one hour, the plate was washed with a cleaning buffer (50 mM Tris-HCl pH 7.5, 150 mM NaCl, 0.02% Tween 20), and a blocking buffer (a cleaning buffer containing 0.1% bovine serum albumin) was added to the plate. After incubation at ambient temperature for 30 minutes, the blocking buffer was removed, and an HRP-PY-20 solution (obtained by diluting HRP-PY-20 solution with the blocking buffer 500 times) was added. After incubation at ambient temperature for 30 minutes, the plate was washed four times, and a TMB substrate solution (Sigma) was added to the plate. After incubation at ambient temperature for four minutes, 1M sulfuric acid was added to stop the reaction. Enzyme activity was measured as absorbance at 450 nm. The efficacy of the test compound as a JAK3 inhibitor was expressed as an IC50 value.

T1 sequence (P52333 796-1124): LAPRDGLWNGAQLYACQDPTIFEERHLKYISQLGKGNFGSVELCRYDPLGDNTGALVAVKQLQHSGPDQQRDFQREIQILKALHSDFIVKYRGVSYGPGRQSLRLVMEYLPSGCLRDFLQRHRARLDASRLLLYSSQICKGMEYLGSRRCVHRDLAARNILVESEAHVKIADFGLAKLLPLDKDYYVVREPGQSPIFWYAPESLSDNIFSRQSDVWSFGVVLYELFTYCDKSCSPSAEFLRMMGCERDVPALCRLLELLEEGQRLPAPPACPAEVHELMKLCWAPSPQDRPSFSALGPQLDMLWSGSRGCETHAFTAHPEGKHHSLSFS

Take `O[C@]12CC3C[C@H](C1)[C@H](Nc1c(-c4nnco4)cnc4[nH]ccc14)[C@@H](C3)C2` (relative stereo) [Example 29, rel-(1s,3R,4R,5S)-4-{[5-(1,3,4-oxazole-2-yl)-1H-pyrrolo[2,3-b]pyridine-4-yl]amino}adamantan-1-ol]: the IC50 is 2.3 nM.

As to `COCCNC(=O)C(=O)Nc1nn([C@H]2C3CC4CC2C[C@@](O)(C4)C3)c2c1cnc1[nH]ccc12` [Example 32, cis-N-{1-[(1R,2R,3S,5s)-5-hydroxyadamantan-2-yl]-1,6-dihydropyrazolo[3,4-d]pyrrolo[2,3-b]pyridine-3-yl}-N′-(2-methoxyethyl)ethanediamide], the IC50 turned out to be 1.9 nM.

As for `CNC(=O)C(=O)Nc1nn([C@H]2[C@@H]3CC4C[C@H]2C[C@@](O)(C4)C3)c2c1cnc1[nH]ccc12` [Example 33, cis-N-{1-[(1R,2R,3S,5s)-5-hydroxyadamantan-2-yl]-1,6-dihydropyrazolo[3,4-d]pyrrolo[2,3-b]pyridine-3-yl}-N′-methylethanediamide], the IC50 was 2.1 nM. With `Nc1nnc(-c2cnc3[nH]ccc3c2N[C@H]2C3CC4CC2C[C@@](O)(C4)C3)s1` [Example 34, (1s,4r)-4-{[5-(5-amino-1,3,4-thiadiazole-2-yl)-1H-pyrrolo[2,3-b]pyridine-4-yl]amino}adamantan-1-ol] the figure was 0.17 nM; with `NC(=O)c1cnc2[nH]ccc2c1N[C@@H]1C[C@H]2CC[C@@H]1C2` [Example 133], 4.4 nM. For `N#Cc1ccc(N2[C@@H]3CC[C@H]2C[C@H](Nc2c(C(N)=O)cnc4[nH]ccc24)C3)nc1` [Example 143] the value was 0.69 nM.

As for `O=C(CO)c1cnc2[nH]ccc2c1N[C@H]1C2CC3CC1C[C@@](O)(C3)C2` [Example 379], the IC50 stood at 1.2 nM. With `CN(CC#N)C(=O)C12CC3CC(C1)C(n1c(=O)[nH]c4cnc5[nH]ccc5c41)C(C3)C2` (centres unmarked) [Example 384] the figure was 0.28 nM; with `N#CCCOC12CC3CC(C1)C(n1c(=O)[nH]c4cnc5[nH]ccc5c41)C(C3)C2` (centres unmarked) [Example 405], 0.65 nM; with `N#CC12CC3CC(C1)C(Nc1c(C(N)=O)cnc4[nH]cnc14)C(C3)C2` (centres unmarked) [Example 426], 2.3 nM. As to `CO[C@H]1CC[C@H](NC(=O)C(=O)Nc2nn([C@H]3[C@@H]4CC5C[C@H]3C[C@@](O)(C5)C4)c3c2cnc2[nH]ccc23)CC1` [Example 434], the IC50 worked out at 0.86 nM. In the case of `OCc1noc(-c2cnc3[nH]ccc3c2N[C@H]2C3CC4CC2C[C@@](O)(C4)C3)n1` [Example 484], the half-maximal inhibitory concentration (IC50) stood at 0.31 nM.

With `N#CCCOC12CC3CC(C1)C(n1[nH]c(=O)c4cnc5[nH]ccc5c41)C(C3)C2` (centres unmarked) [Example 498], the IC50 was 1.3 nM.

Consider `N#Cc1ccc(N2[C@@H]3CC[C@H]2C[C@H](Nc2c(C(N)=O)cnc4[nH]ccc24)C3)nn1` [Example 543], for which the IC50 stood at 0.33 nM.
